Test results from ChEMBL document CHEMBL1155771, “Emergence of KPC-2 and KPC-3 in carbapenem-resistant Klebsiella pneumoniae strains in an Israeli hospital” (2007).
Values after ≈ are worked out from the molar mass of the structure shown.

Columns and labels:
Klebsiella pneumoniae [1] = experiment: Antibacterial activity against carbapenem-resistant Klebsiella pneumoniae 469 isolate producing KPC2, OXA4 and CTX-M-10 carbapenemases; format: functional
Escherichia coli [2] = experiment: Antibacterial activity against sEscherichia coli GeneHogs recipient strain without blaKPC-encoding plasmid
Klebsiella pneumoniae [3] = experiment: Antibacterial activity against carbapenem-resistant Klebsiella pneumoniae 490 isolate producing KPC3 and TEM1 carbapenemases; format: functional
Escherichia coli [4] = experiment: Antibacterial activity against carbapenem-resistant blaKPC-encoding plasmid harboring Escherichia coli GeneHogs transformant of Klebsiella pneumoniae 490 producing KPC3 and TEM1 carbapenemases
Escherichia coli [5] = experiment: Antibacterial activity against carbapenem-resistant blaKPC-encoding plasmid harboring Escherichia coli GeneHogs transformants of Klebsiella pneumoniae 469 producing KPC2, OXA4 and CTX-M-10 carbapenemases

| Molecule | MIC (Klebsiella pneumoniae [1]) [µg/mL] | MIC (Escherichia coli [2]) [µg/mL] | MIC (Klebsiella pneumoniae [3]) [µg/mL] | MIC (Escherichia coli [4]) [µg/mL] | MIC (Escherichia coli [5]) [µg/mL] |
| --- | --- | --- | --- | --- | --- |
| C[C@@H](O)[C@H]1C(=O)N2C(C(=O)O)=C(S[C@@H]3CN[C@H](C(=O)Nc4cccc(C(=O)O)c4)C3)[C@H](C)[C@H]12 | 16 (≈ 33.6 µM) | < 0.25 | 64 (≈ 135 µM) | 2 (≈ 4.21 µM) | 4 (≈ 8.41 µM) |
| CO/N=C(\C(=O)N[C@@H]1C(=O)N2C(C(=O)[O-])=C(C[N+]3(C)CCCC3)CS[C@H]12)c1csc(N)n1 | > 64 | < 1 | > 64 | – | – |
| NCC[C@H](O)C(=O)N[C@@H]1C[C@H](N)[C@@H](O[C@H]2O[C@H](CN)[C@@H](O)[C@H](O)[C@H]2O)[C@H](O)[C@H]1O[C@H]1O[C@H](CO)[C@@H](O)[C@H](N)[C@H]1O [AMIKACIN] | 4 (≈ 6.83 µM) | < 2 | > 64 | < 2 | 16 (≈ 27.3 µM) |
| C[C@H]1[C@H](NC(=O)/C(=N\OC(C)(C)C(=O)O)c2csc(N)n2)C(=O)N1S(=O)(=O)O [AZTREONAM] | – | < 1 | – | – | 32 (≈ 73.5 µM) |
| CC(C)(O/N=C(\C(=O)N[C@@H]1C(=O)N2C(C(=O)[O-])=C(C[n+]3ccccc3)CS[C@H]12)c1csc(N)n1)C(=O)O [CEFTAZIDIME] | > 64 | < 1 | > 64 | 16 (≈ 29.3 µM) | > 64 |
| CO/N=C(\C(=O)N[C@@H]1C(=O)N2C(C(=O)O)=C(CSc3nc(=O)c(O)nn3C)CS[C@H]12)c1csc(N)n1 [CEFTRIAXONE] | > 64 | < 1 | > 64 | 8 (≈ 14.4 µM) | > 64 |
| O=C(O)c1cn(C2CC2)c2cc(N3CCNCC3)c(F)cc2c1=O [CIPROFLOXACIN] | – | < 0.25 | – | – | – |
| C[C@@H](O)[C@H]1C(=O)N2C(C(=O)O)=C(SCCNC=N)C[C@H]12 [IMIPENEM ANHYDROUS] | 16 (≈ 53.4 µM) | < 0.25 | 32 (≈ 107 µM) | 4 (≈ 13.4 µM) | 4 (≈ 13.4 µM) |
| C[C@@H](O)[C@H]1C(=O)N2C(C(=O)O)=C(S[C@@H]3CN[C@H](C(=O)N(C)C)C3)[C@H](C)[C@H]12 [MEROPENEM] | 8 (≈ 20.9 µM) | < 0.25 | 32 (≈ 83.4 µM) | 2 (≈ 5.22 µM) | 4 (≈ 10.4 µM) |
| CCN1CCN(C(=O)N[C@@H](C(=O)N[C@@H]2C(=O)N3[C@@H]2SC(C)(C)[C@@H]3C(=O)O)c2ccccc2)C(=O)C1=O [PIPERACILLIN] | > 128 | < 4 | > 128 | > 128 | > 128 |
| CN(C)c1cc(NC(=O)CNC(C)(C)C)c(O)c2c1C[C@H]1C[C@H]3[C@H](N(C)C)C(O)=C(C(N)=O)C(=O)[C@@]3(O)C(O)=C1C2=O [TIGECYCLINE] | 2 (≈ 3.41 µM) | 0.016 (≈ 0.0273 µM) | 2 (≈ 3.41 µM) | 0.5 (≈ 0.854 µM) | 0.5 (≈ 0.854 µM) |
| COLISTIN | 0.25 | – | 0.25 | – | – |
